According to PMC6009944, “Synthesis, antitumour activities and molecular docking of thiocarboxylic acid ester-based NSAID scaffolds: COX-2 inhibition and mechanistic studies” (Journal of Enzyme Inhibition and Medicinal Chemistry, 2018):
Where two headings read alike, the source gives them in different places.

Key:
[1] = test system: MCF-7; experiment: MTT antitumor assay, MCF-7; settings: Homo sapiens
Description: (§2) The evaluation of the antitumour activity was performed using tetrazolium salt MTT (3–(4,5-dimethyl-2-thiazolyl)-2,5-diphenyl-2H-tetrazolium bromide) assay as reported[47–50].

[2] = test system: Caco-2; experiment: MTT antitumor assay, Caco-2; settings: Homo sapiens, Caco-2, read-out: IC50 (μM) Caco-2
Description: as §2

[3] = test system: HCT-116; experiment: MTT antitumor assay, HCT-116; settings: Homo sapiens
Description: as §2

[4] = test system: HepG2; experiment: MTT antitumor assay, HepG2; settings: Homo sapiens, HepG2, read-out: IC50 (μM) HepG2
Description: as §2

[5] = target: T1, HER4 (Homo sapiens, UniProt Q15303); experiment: Kinase inhibition assay (Kinase-Glo Plus), HER4; type: biochemical; settings: read-out: % inhibition of 10 μM HER4; 10 μM compound
T1 construct: purchased BPS Bioscience
T1 sequence (Q15303 26-1308): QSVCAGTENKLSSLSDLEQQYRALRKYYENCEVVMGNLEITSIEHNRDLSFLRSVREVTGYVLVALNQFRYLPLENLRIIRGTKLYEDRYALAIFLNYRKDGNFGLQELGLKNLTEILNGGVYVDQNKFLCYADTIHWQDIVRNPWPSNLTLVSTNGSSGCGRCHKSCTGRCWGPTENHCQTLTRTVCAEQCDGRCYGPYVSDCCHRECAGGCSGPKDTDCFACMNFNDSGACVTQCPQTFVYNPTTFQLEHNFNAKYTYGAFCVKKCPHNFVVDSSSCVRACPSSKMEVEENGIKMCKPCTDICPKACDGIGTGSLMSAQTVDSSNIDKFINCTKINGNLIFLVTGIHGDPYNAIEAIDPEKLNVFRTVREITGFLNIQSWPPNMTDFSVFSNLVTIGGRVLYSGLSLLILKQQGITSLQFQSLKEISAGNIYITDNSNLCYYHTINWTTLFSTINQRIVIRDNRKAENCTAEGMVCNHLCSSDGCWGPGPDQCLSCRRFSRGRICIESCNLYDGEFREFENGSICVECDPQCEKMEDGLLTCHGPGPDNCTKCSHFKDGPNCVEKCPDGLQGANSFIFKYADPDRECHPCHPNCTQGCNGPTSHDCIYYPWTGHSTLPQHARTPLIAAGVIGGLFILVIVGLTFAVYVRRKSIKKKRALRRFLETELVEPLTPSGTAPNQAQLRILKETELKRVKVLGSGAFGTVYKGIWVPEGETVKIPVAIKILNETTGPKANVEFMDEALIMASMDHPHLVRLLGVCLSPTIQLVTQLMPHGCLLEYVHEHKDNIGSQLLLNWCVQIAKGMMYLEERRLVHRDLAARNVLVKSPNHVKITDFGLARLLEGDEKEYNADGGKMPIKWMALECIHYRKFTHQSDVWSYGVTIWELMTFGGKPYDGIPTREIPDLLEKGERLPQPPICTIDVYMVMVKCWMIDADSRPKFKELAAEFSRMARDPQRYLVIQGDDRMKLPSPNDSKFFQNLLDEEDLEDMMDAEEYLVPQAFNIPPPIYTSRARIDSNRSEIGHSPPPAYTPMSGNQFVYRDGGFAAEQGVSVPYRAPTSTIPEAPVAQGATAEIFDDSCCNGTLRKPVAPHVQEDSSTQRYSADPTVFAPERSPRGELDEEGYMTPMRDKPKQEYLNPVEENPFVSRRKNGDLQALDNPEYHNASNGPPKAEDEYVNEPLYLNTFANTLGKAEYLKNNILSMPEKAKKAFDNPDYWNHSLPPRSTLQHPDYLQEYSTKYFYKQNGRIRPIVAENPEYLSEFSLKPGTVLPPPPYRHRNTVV
Description: (§1) Luminescence signal was measured using a BioTek Synergy 2 microplate reader.

[6] = target: T2, COX-2 (Ovis aries, UniProt P79208); experiment: In vitro COX-2 enzyme inhibition assay (colorimetric kit); settings: for SI, selectivity index (COX-1 IC50/COX-2 IC50): COX-2 selectivity over COX-1
T2 sequence (P79208 17-603): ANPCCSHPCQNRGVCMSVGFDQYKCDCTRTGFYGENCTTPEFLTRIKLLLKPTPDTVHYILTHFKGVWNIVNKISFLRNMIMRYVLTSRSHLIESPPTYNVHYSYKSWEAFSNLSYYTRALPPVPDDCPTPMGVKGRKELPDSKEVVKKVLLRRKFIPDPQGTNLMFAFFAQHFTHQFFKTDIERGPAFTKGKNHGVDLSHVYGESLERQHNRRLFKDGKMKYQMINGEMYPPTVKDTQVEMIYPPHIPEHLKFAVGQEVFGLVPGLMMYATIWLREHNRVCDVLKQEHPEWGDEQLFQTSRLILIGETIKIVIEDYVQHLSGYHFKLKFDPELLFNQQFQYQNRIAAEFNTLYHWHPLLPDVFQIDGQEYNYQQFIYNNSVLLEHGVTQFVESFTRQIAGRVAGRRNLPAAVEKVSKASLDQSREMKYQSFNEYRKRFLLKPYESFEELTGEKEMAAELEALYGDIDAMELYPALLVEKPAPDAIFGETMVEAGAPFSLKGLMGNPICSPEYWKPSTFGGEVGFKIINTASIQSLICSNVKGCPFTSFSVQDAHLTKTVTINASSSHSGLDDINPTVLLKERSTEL
Description: (§3) IC50 (represented in μM) (The half-maximal inhibitor concentration) values were determined[56–59], and the SI values were calculated[51]^,[52]^,[55] as IC50 (COX-1)/IC50 (COX-2).

[7] = target: T3, HER2 (Homo sapiens, UniProt P04626); experiment: Kinase inhibition assay (Kinase-Glo Plus), HER2; type: biochemical; settings: read-out: % inhibition of 10 μM HER2; 10 μM compound
T3 construct: purchased BPS Bioscience
T3 sequence (P04626 23-1255): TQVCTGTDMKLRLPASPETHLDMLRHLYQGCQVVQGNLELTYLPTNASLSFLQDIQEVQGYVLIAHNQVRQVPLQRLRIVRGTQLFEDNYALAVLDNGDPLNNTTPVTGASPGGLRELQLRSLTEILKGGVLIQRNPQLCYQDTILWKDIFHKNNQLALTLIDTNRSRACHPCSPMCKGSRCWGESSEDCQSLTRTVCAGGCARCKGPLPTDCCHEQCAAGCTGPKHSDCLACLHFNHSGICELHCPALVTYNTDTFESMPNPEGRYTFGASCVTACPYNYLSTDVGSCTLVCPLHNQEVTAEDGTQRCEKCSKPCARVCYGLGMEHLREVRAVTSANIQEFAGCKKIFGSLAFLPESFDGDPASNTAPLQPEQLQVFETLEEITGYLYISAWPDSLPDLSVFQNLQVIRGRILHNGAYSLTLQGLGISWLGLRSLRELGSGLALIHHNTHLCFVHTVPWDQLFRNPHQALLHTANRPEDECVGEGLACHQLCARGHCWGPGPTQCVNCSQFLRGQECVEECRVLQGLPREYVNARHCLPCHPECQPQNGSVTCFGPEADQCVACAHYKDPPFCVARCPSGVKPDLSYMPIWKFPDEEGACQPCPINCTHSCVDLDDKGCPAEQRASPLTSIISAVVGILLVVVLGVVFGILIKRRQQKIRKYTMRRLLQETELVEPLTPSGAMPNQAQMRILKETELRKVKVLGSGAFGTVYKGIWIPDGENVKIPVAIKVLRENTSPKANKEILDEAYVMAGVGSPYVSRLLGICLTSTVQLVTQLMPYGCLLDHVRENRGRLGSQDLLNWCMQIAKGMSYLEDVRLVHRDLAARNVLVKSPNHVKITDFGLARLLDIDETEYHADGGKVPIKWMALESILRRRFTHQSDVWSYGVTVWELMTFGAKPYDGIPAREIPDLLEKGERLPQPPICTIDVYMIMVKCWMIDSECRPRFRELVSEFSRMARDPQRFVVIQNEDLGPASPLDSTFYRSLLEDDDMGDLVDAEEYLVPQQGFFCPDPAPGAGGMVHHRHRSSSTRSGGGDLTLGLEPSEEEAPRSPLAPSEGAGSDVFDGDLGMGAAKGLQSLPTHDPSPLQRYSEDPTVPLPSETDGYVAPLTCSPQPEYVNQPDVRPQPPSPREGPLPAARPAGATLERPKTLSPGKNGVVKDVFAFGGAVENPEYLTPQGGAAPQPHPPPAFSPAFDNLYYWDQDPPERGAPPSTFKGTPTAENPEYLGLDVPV
Description: as §1

[8] = target: T4, COX-1 (Ovis aries, UniProt P05979); experiment: In vitro COX-1 enzyme inhibition assay (colorimetric kit)
T4 sequence (P05979 25-600): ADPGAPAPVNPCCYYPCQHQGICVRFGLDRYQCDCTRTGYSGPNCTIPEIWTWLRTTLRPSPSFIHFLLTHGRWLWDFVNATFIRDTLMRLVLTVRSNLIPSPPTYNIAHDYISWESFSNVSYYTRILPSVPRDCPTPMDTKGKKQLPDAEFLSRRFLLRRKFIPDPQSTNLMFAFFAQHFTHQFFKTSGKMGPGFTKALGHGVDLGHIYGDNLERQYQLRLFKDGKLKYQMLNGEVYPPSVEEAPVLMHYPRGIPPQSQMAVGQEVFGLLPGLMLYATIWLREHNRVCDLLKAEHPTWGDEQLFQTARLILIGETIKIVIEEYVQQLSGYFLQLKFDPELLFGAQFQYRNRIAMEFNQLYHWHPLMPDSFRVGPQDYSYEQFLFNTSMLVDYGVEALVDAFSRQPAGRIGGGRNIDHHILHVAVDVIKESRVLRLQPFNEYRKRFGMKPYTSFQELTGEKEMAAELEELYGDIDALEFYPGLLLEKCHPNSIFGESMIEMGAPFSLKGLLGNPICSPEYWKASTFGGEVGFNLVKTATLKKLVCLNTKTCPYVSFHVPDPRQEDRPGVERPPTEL
Description: as §3

[9] = target: T5, EGFR (Homo sapiens, UniProt P00533); experiment: Kinase inhibition assay (Kinase-Glo Plus), EGFR; type: biochemical; settings: read-out: % inhibition of 10 μM EGFR; 10 μM compound
T5 construct: purchased BPS Bioscience
T5 sequence (P00533 25-1210): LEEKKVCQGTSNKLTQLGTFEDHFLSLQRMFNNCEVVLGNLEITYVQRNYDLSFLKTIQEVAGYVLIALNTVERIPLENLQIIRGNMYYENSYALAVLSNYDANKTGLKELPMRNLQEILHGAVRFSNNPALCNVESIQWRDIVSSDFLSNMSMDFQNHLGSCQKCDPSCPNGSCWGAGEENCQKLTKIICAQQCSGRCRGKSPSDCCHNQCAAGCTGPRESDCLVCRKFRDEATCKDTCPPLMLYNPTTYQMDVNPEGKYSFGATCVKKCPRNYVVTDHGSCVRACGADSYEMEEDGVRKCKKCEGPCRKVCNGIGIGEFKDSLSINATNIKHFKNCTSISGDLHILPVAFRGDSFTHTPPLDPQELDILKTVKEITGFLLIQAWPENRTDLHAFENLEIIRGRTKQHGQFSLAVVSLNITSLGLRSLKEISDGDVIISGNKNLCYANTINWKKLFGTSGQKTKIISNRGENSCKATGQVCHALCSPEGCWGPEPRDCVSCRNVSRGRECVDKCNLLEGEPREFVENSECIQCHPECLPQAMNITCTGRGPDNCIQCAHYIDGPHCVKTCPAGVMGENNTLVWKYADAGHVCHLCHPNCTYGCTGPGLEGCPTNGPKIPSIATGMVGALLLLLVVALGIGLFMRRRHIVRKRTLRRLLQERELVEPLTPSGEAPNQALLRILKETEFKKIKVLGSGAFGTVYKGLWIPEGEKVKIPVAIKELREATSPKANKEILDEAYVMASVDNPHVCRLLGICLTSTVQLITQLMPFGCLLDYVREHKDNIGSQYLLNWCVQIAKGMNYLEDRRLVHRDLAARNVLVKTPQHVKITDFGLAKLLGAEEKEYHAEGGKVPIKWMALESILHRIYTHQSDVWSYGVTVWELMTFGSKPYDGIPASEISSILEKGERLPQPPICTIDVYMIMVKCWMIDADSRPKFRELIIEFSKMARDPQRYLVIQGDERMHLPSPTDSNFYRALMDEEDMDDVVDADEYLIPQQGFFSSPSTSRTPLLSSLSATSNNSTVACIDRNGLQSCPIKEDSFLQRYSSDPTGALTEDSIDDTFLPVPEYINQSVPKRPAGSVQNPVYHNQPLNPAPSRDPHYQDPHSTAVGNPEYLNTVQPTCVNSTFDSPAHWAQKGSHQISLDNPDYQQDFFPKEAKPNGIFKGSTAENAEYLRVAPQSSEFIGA
Description: as §1

[10] = target: T6, cSrc (Homo sapiens, UniProt P12931); experiment: Kinase inhibition assay (Kinase-Glo Plus), cSrc; type: biochemical; settings: read-out: % inhibition; 10 μM compound
T6 construct: purchased BPS Bioscience
T6 sequence (P12931 whole entry): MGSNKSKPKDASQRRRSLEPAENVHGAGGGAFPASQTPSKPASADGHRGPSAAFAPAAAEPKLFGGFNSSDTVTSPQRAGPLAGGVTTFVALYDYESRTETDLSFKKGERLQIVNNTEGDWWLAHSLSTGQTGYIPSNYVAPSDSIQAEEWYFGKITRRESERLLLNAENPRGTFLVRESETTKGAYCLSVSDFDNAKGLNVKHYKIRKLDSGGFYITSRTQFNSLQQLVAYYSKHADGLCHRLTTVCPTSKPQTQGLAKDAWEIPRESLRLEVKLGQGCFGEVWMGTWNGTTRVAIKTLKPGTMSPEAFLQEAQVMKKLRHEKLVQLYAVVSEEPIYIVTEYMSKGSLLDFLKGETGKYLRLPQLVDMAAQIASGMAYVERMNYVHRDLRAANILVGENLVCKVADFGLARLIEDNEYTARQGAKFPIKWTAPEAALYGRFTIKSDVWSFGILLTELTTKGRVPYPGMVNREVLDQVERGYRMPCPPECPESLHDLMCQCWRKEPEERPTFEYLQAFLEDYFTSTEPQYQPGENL
Description: as §1

[11] = MCF7, read-out: IC50 (μM) MCF-7, human breast adenocarcinoma cell line, MTT, mean ± SD, n = 3
[12] = HCT-116, read-out: IC50 (μM) HCT-116, human colon cancer cell line, MTT, mean ± SD, n = 3

Row | Compound | IC50 ([1]; MCF7, read-out: IC50 (μM) MCF-7) | IC50 [2] | IC50 ([3]; HCT-116, read-out: IC50 (μM) HCT-116) | IC50 [4] | IC50 [1, 11] | inhibition at 10 µM [5] | IC50 [6] | SI, selectivity index (COX-1 IC50/COX-2 IC50) [6] | inhibition at 10 µM [7] | IC50 [8] | inhibition at 10 µM [9] | IC50 [3, 12] | inhibition at 10 µM [10] | melting point
1 | Cc1ccc(-c2cc(C(F)(F)F)nn2-c2ccc(S(N)(=O)=O)cc2)cc1 [Celecoxib, reference compound] | 31.3 ± 2.5 µM | 42.7 ± 3.1 µM | 29.5 ± 2.1 µM | 25.6 ± 2.3 µM |  |  |  |  |  |  |  |  |  | 
2 | CC1=C(CC(=O)Sc2ccccc2)c2cc(F)ccc2C1=Cc1ccc([S+](C)[O-])cc1 (stereo not drawn) [8a, S-phenyl-2–(5-fluoro-2-methyl-1–(4-(methylsulfinyl)benzylidene)-1H-inden-3-yl)ethanethioate] |  | 15.4 ± 1.37 µM |  | 7.35 ± 0.34 µM | 8.62 ± 0.72 µM | 10% | 0.2 ± 0.016 µM | >250.0 | 0% | > 50 µM | 6% | 9.73 ± 0.85 µM | 4% | 
3 | CC(=O)Oc1ccccc1C(=O)SC1CCCCC1 [4b, 2-[(Cyclohexylthio)carbonyl]phenyl acetate] |  | 68.8 ± 3.79 µM |  | 63.6 ± 3.91 µM | 46.5 ± 2.84 µM |  |  |  |  |  |  | 76.5 ± 4.22 µM |  | 55 to 56 °C
4 | CC(=O)Oc1ccccc1C(=O)Sc1ccccc1 [4a, 2-[(Phenylthio)carbonyl]phenyl acetate] |  | 80.2 ± 4.5 µM |  | 71.1 ± 4.11 µM | 73.7 ± 3.92 µM |  |  |  |  |  |  | 85.4 ± 4.57 µM |  | 72 to 73 °C
5 | O=c1[nH]cc(F)c(=O)[nH]1 [5-FU, 5-Fluorouracil, reference compound] |  | 6.85 ± 0.34 µM |  | 7.91 ± 0.28 µM | 5.43 ± 0.2 µM |  |  |  |  |  |  | 5.32 ± 0.17 µM |  | 
6 | CN(C)C/C=C/C(=O)Nc1cc2c(Nc3ccc(F)c(Cl)c3)ncnc2cc1O[C@H]1CCOC1 [Afatinib, reference compound] |  | 7.7 ± 0.57 µM |  | 5.4 ± 0.25 µM | 7.1 ± 0.49 µM |  |  |  |  |  |  | 6.2 ± 0.67 µM |  | 
7 | CC(C(=O)Sc1ccccc1)c1ccc(-c2ccccc2)c(F)c1 (stereo not drawn) [3a, S-phenyl-2–(2-fluoro-[1,1′-biphenyl]-4-yl)propanethioate] |  | 76.5 ± 4.38 µM |  | 68.8 ± 3.87 µM | 63.6 ± 3.62 µM |  |  |  |  |  |  | 78.1 ± 4.08 µM |  | 85 to 86 °C
8 | CC(C(=O)SC1CCCCC1)c1ccc(-c2ccccc2)c(F)c1 (stereo not drawn) [3b, S-cyclohexyl-2–(2-fluoro-[1,1′-biphenyl]-4-yl)propanethioate] |  | 26.8 ± 2.17 µM |  | 10.5 ± 0.98 µM | 13.7 ± 1.19 µM | 3% | 0.69 ± 0.057 µM | >72.5 | 0% | > 50 µM | 0% | 23.8 ± 1.8 µM | 3% | 90 to 92 °C
9 | CC(C)Cc1ccc(C(C)C(=O)Sc2ccccc2)cc1 (stereo not drawn) [1a, S-phenyl-2–(4-isobutylphenyl)propanethioate] |  | 94.8 ± 4.92 µM |  | 85.1 ± 4.53 µM | 80.4 ± 4.58 µM |  |  |  |  |  |  | 89.6 ± 4.68 µM |  | 
10 | O=C(Cc1ccccc1Nc1c(Cl)cccc1Cl)Sc1ccccc1 [6a, S-phenyl-2–(2-((2,6-dichlorophenyl)amino)phenyl)ethanethioate] |  | 10.2 ± 0.92 µM |  | 26.8 ± 2.08 µM | 6.11 ± 0.31 µM | 5% | 0.25 ± 0.017 µM | >200.0 | 1% | > 50 µM | 6% | 46.9 ± 3.23 µM | 5% | 101 to 102 °C
